Measured values from patent US5962418A, “Factor VII-derived peptides” (Nycomed Imaging A/S, priority 1993, dated 1999).
Where a SMILES comes first, the peptide text is derived from it. Bridges are numbered along the chain shown (N, C = ends).

Key:
[1] = target: binding of Factor VII to tissue factor (Homo sapiens, UniProt P13726); experiment: Inhibition of FVII/TF binding or FVII activity, assay not specified (summary statements)
[2] = target: Factor VII and tissue factor (Homo sapiens, UniProt P13726); details: Corvas Inc., Table 1 of WO90/03390; cited from earlier work
[3] = target: FVII binding to immobilized rTF (Homo sapiens, UniProt P13726); experiment: ELISA assay of inhibition of FVII binding to immobilized rTF; details: for inhibition at 500 µM: peptide 0.5 mM
Description: FIG. 13 ELISA assay of the inhibition of FVII binding to immobilized rTF produced by synthetic FVII peptides (all at 0.5 mM). For peptide sequences see the table of peptides below (page 19). C and L denote the cyclic and linear forms respectively of peptides with terminal cysteines.
The inhibition results shown in FIG. 13 indicate that in addition to sequences from the "hinge" region (i.e. residues 41-48 between the GLA domain and the first EGF domain, […]) and from the first EGF domain itself (i.e. residues 50-61; Clarke et al), there exist additional sequences in the second EGF domain (especially 95-104) which are inhibitors when presented as peptides in this binding assay.

[4] = tested on: coagulation factors of the intrinsic and common pathways of coagulation; experiment: Coagulation assay initiated by contact activation (Cephotest); details: all coagulation factors other than TF/FVII
From the text: The effect of the peptides observed in the coagulation assay could conceivably have been due to effects on another one or more of the several components contributing to the coagulation cascade. This possibility was therefore tested by adding the peptides to coagulation assays which were initiated by contact activation (Cephotest™, Nycomed), and therefore involved coagulation factors of the intrinsic and common pathways of coagulation, i.e. all coagulation factors other than TF/FVII. […] Thus evidence was obtained that the effects observed in the TF/FVII initiated coagulation assay above were in fact due to a direct effect on the TF/FVII complex.

[5] = target: T1, tissue factor (TF) expressed on the surface of living cells (Homo sapiens, UniProt P13726); experiment: Assay of cell-surface TF initiated coagulation of plasma (microcarrier coagulation assay); type: cell-based; details: peptide 0.5 mM
T1 construct: induced by tissue factor (TF) expressed on the surface of living cells; endogenous in cells; host or cells: living cells on Cytodex-3 microcarriers (e.g. human HT-1080 or ECV-304)
Description: FIGS. 9A-9C Principle of the microcarrier assay of cell-surface mediated coagulation of blood plasma. Living cells (e.g., human HT-1080 fibrosarcoma; ATCC CRL 121) adherent on the surface of microcarriers are mixed with a calcium-containing buffer and plasma in the incubation well of a Thrombotrack™ electromagnetic coagulometer (Nycomed). The clotting time is measured by the increase in resistance to movement of a magnetic ball produced by the formation of fibrin fibres. HT-1080 cells adherent on Cytodex-3 microcarriers are shown in FIG. 9C as an example of the types of cells expressing TF which may be used.
Assay of Cell-surface TF Initiated Coagulation of Plasma
A novel assay system has been devised to measure the coagulation of blood plasma (i.e. clotting time) induced by tissue factor (TF) expressed on the surface of living cells. This assay makes use of human or animal cells adherent on the surface of microcarriers (see FIG. 9), which enables reproducible presentation of known amounts of TF activity in the stirred measuring well of an electromagnetic coagulometer. The cells used may be normal or transformed, and representing phenotypes such as monocytes, endothelium, fibroblasts etc (see FIG. 10).
This novel assay has been particularly developed and characterised so as to be highly useful in determining the effect of synthetic peptides and peptidomimetic compounds on the extrinsic pathway of coagulation, using living cells in a plasma milieu. Results for the inhibitory effect of synthetic peptides based upon the amino acid sequence of human FVII are disclosed.
The microcarrier cell preparation is made as follows. Cells obtained from primary isolates or subcultures of transformed lines (see FIG. 10) are suspended in a small volume of serum-containing medium and mixed with microcarriers (Cytodex-3, Pharmacia) in a ratio of about 50-100 cells/microcarrier. The cells are usually adhere nt on the microcarriers within 2 hours, and can then be transferred to normal roller bottles with a larger volume of culture medium. Uniform coverage of microcarriers with about 20-60 cells can be obtained directly with transformed cells, when large cell numbers are available, or after 2 days growth when primary cultures (e.g. umbilical vein endothelial cells) are used. […]
To assay the extrinsic coagulation activity, the microcarrier cell preparations are first washed with a calcium-free buffer to remove bound serum factors. A calcium-containing buffer and plasma are then added and the clotting time is determined automatically in an electromagnetic coagulometer. […]

FVIIa/TF = target: T2, FVIIa/TF (Homo sapiens, UniProt P13726); experiment: Kinetics of inhibition of FX activation (assay of FVIIa/TF activity); type: biochemical; details: varying FVII-5 and Factor X concentrations
T2 construct: purchased Behringwerk (TF, Thromborel); Diagnostica Stago (FVIIa)
Description: Peptides (0-1 mM) were preincubated in 0.1 M Tris.HCl pH 7.2 with tissue factor (Thromborel®, Behringwerk, Marburg, Germany; 0.2% final concentration) at 22° C. for 30 minutes, then Factor X (American Diagnostica Inc., Greenwich, Conn. USA; 70 nM was added followed by FVIIa (Diagnostica Stago, Asnieres, France; 8 pM and CaCl2 (5 mM). Incubations were continued for 30 minutes and quenched with EDTA (50 mM) which removes essential Ca^2+. The FXa produced was quantified by monitoring hydrolysis of the chromegenic FX substrate S-2222 (Chromogenix,Molndal, Sweden).
The kinetics of inhibition of FX activation by FVII-5 was investigated. Varying concentrations of FVII-5 were incubated with different concentrations of Factor X in the presence or absence of TF and FVIIa.

[6] = target: T3, purified human FVIIa bound to recombinant human TF (apoTF/FVIIa) (Homo sapiens, UniProt P13726); experiment: Assay of apoTF/FVIIa catalytic (amidolytic) activity; type: biochemical; details: for IC50: read-out: IC50, Amidolytic apo TF Assay
T3 construct: purchased American Diagnostica (TF); Enzyme Research Laboratories (FVIIa) 4500 (TF); HFVlla (FVIIa)
Description: Assay of apoTF/FVIIa Catalytic Activity
This […] assay was used to measure directly the amidolytic (catalytic) activity of purified human FVIla when bound to recombinant human TF in the absence of phospholipid.
Reactions were performed in microtitre plate wells, using a final incubation volume of 200 uL. Test compounds, dissolved in water, (final concentration, 0-1 mM) were preincubated with recombinant human tissue factor (American Diagnostica, cat# 4500; 5 nM) and CaCl2 (5 mM) in Tris buffer (100 mM), pH 7.2, containing NaCl (150 mM) and BSA (1 mg/mL) at ambient temperature for 30 minutes. Factor Vlla (Enzyme Research Laboratories, cat# HFVlla; 5 nM) was added and the incubations continued for 60 minutes. Chromogenic substrate, S2288 (Chromogenix cat# 820852; 0.5 mM) was then added and the enzymatic activity of the tissue factor apoprotein/factor VII complex (apoTF/FVlla) was monitored at 405 nm.

[7] = target: T4, native TF/FVIIa complex on the surface of HT-1080 cells (Homo sapiens, UniProt P13726); experiment: Assay of HT1080 cell surface TF/FVIIa mediated activation of FX (amidolytic microcarrier assay); type: cell-based
T4 construct: native TF/FVIIa complex on the surface of living cells expressing TF in their cell membrane; endogenous in cells; host or cells: HT-1080 human fibrosarcoma cells on Cytodex-3 microcarriers
T4 sequence (P13726 33-295, one chain of several): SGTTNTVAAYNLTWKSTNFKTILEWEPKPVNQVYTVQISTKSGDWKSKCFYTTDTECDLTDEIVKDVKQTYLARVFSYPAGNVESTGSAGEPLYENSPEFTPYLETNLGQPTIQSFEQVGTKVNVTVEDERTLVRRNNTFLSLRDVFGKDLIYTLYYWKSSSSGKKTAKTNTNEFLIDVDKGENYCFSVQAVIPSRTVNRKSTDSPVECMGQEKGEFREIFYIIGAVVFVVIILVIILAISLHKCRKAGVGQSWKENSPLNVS

T1 sequence (P13726 33-295): as the sequence (P13726 33-295, one chain of several) above
Chain of Factor VII and tissue factor (P13726 33-295, species assumed): as the sequence (P13726 33-295, one chain of several) above
T3 sequence (P13726 33-295): as the sequence (P13726 33-295, one chain of several) above
Chain of FVII binding to immobilized rTF (P13726 33-295): as the sequence (P13726 33-295, one chain of several) above
Chain of binding of Factor VII to tissue factor (P13726 33-295): as the sequence (P13726 33-295, one chain of several) above
T2 sequence (P13726 33-295): as the sequence (P13726 33-295, one chain of several) above

| Inhibitory activity, in words [1] | inhibition at 500 µM [5] | Compound | Inhibition of activation of Factor X by Factor VII and tissue factor as reported in WO90/03390 [2] | Effect on contact-activated coagulation (specificity) [4] | further results |
| --- | --- | --- | --- | --- | --- |
| relatively active |  | CHEGYSLLADGVSC [114-127, FVII residues 114-127] | zero inhibitory acticity |  |  |
| most active inhibitor so far tested |  | NGGCEQYCSD [95-104, FVII residues 95 to 104] |  | inactive | Inhibition of FVII binding to rTF, in words ([3]; peptides at 0.5 mM (FIG. 13)): inhibitors |
|  | 30% | Ac-SDHTGTKRS-NH2 [103-111] |  | inactive | IC50 [6]: 2.2 mM; IC50 ([7]; HT-1080 cells on microcarriers): 0.87 mM; inhibition at 500 µM [3]: 59% |

The next lines start with the compound.

| Compound | Inhibitory activity, in words [1] | inhibition at 500 µM [5] | Inhibition of activation of Factor X by Factor VII and tissue factor as reported in WO90/03390 [2] | Effect on contact-activated coagulation (specificity) [4] | further results |
| --- | --- | --- | --- | --- | --- |
| Hirudin [reference compound] |  |  |  | strongly inhibitory |  |
| CVNENGGCEQYC [91-102, FVII residues 91-102] | particularly active |  | zero inhibitory acticity | inactive |  |
| CC(C)C[C@@H]1NC(=O)[C@@H](N)CSSC[C@@H](C(=O)O)NC(=O)[C@H](CC(N)=O)NC(=O)[C@H](CCCNC(=N)N)NC(=O)CNC(=O)[C@H](CCC(=O)O)NC(=O)[C@H](Cc2ccccc2)NC(=O)[C@H](C)NC(=O)[C@@H]2CCCN2C1=O [72-81(C)] |  | 22% |  |  | inhibition at 500 µM [3]: 89% |
| CC(C)[C@@H]1NC(=O)[C@@H](N)CSSC[C@@H](C(=O)O)NC(=O)[C@H](Cc2ccc(O)cc2)NC(=O)[C@H](CCC(N)=O)NC(=O)[C@H](CCC(=O)O)NC(=O)[C@H](CS)NC(=O)CNC(=O)CNC(=O)[C@H](CC(N)=O)NC(=O)[C@H](CCC(=O)O)NC(=O)[C@H](CC(N)=O)NC1=O [91-102(C)] (H-CVNENGGCEQYC-OH; disulfide 1-12 (inferred)) |  |  |  |  | Mode of inhibition of Factor X activation (FVIIa/TF): noncompetitive inhibition |
| CLPAFEGRNC [72-81] |  |  | zero inhibitory acticity |  | Synergistic enhancement of the inhibitory action of peptides of the sequence 91 to 104 ([1]; in combination): acted synergistically |
| TAP: tick anticoagulant polypeptide; control inhibitor of FX (YNRLCIKPRDWIDECDSNEGGERAYFRNGKGGCDSFWICPEDHTGADYYSSYRDCFNACI; UniProt P17726 1-60, looked up) [reference compound] |  |  |  | strongly inhibitory | Inhibition of FXa amidolytic activity generated by HT-1080 cell-surface TF/FVIIa ([7]; HT-1080 cells): inhibition of activity |
| CC(C)[C@H](NC(=O)[C@@H](N)CS)C(=O)N[C@@H](CC(N)=O)C(=O)N[C@@H](CCC(=O)O)C(=O)N[C@@H](CC(N)=O)C(=O)NCC(=O)NCC(=O)N[C@@H](CS)C(=O)N[C@@H](CCC(=O)O)C(=O)N[C@@H](CCC(N)=O)C(=O)N[C@@H](Cc1ccc(O)cc1)C(=O)N[C@@H](CS)C(=O)O [91-102(L)] (H-CVNENGGCEQYC-OH; N-terminus and C-terminus assumed) |  | 14% |  |  | IC50 [6]: 1.14 mM; IC50 [3]: 0.06 mM |
| CC(C)C[C@@H]1NC(=O)[C@H](CC(C)C)NC(=O)[C@H](CO)NC(=O)[C@H](Cc2ccc(O)cc2)NC(=O)CNC(=O)[C@H](CCC(=O)O)NC(=O)[C@H](Cc2c[nH]cn2)NC(=O)[C@@H](N)CSSC[C@@H](C(=O)O)NC(=O)[C@H](CO)NC(=O)[C@H](C(C)C)NC(=O)CNC(=O)[C@H](CC(=O)O)NC(=O)[C@H](C)NC1=O [114-127(C)] (H-CHEGYSLLADGVSC-OH; disulfide 1-14) |  | 44% |  |  | inhibition at 500 µM ([6]; peptide 0.5 mM, did not reach near-quantitative inhibition at 1 mM, read-out: % inhibition at 0.5 mM, Amidolytic apo TF Assay): 21%; inhibition at 500 µM [3]: 77% |
| SDHTGTKRSC [reference compound] | only moderate activity |  | active |  | Inhibitor of the binding of Factor VII to tissue factor, in words [1]: rather poor inhibitor |
